Results published in patent publication US20030186816A1, “Herbicide combinations comprising specific sulfonylureas” (Bayer CropScience GmbH, priority 2002, published 2003).

Assays:
Assay type in all cases: in vivo
[1] = system: Winter wheat; experiment: Crop damage in outdoor trials
Description: (§1) Herbicidal Action (Outdoor Trials)
(§2) The seeds or rhizome pieces of typical harmful plants were planted and grown under natural outdoor conditions. After the harmful plants had emerged, they were treated, as a rule at the 2- to 4-leaf stage, with various dosages of the compositions according to the invention at a water application rate of 100 to 400 l/ha (converted).
(§3) After the treatment (approx. 4-6 weeks after application), the herbidical activity of the active compounds or active compound mixtures was scored visually by comparing the treated plots with the untreated control plots. Damage and development of all above-ground parts of the plants was recorded. Scoring was done on a percentage scale (100% action=all plants dead; 50% action=50% of the plants and green plant parts dead; 0% action=no discernible action=like control plot). The score figures of in each case 4 plots were averaged. The results are listed in the tables below, where the activity measured for the independent use of the active compounds (A+B) and C) is stated in brackets.

[2] = system: Papaver rhoeas; experiment: Herbicidal action (outdoor trials); details: scored approx. 4-6 weeks after application
Description: as §1, §2, §3

[3] = system: Wheat; experiment: Crop damage in outdoor trials; details: 750 g of AS/ha, scored approx. 4-6 weeks after application, trial with Avena ludoviciana
Description: as §1, §2, §3

[4] = system: Avena ludoviciana; experiment: Herbicidal action (outdoor trials); details: 750 g of AS/ha, scored approx. 4-6 weeks after application
Description: as §1, §2, §3

[5] = system: Veronic pericaria; experiment: Herbicidal action (outdoor trials); details: 150 g of AS/ha, scored approx. 4-6 weeks after application
Description: as §1, §2, §3

[6] = system: Summer wheat; experiment: Crop damage in outdoor trials; details: 30 g of AS/ha, scored approx. 4-6 weeks after application
Description: as §1, §2, §3

[7] = system: Brassica naupus; experiment: Herbicidal action (outdoor trials); details: 30 g of AS/ha, scored approx. 4-6 weeks after application
Description: as §1, §2, §3

[8] = system: Aspera spica venti; experiment: Herbicidal action (outdoor trials); details: 30 g of AS/ha, scored approx. 4-6 weeks after application
Description: as §1, §2, §3

[9] = system: Physalis spp.; experiment: Herbicidal action (outdoor trials); details: 30 g of AS/ha, scored approx. 4-6 weeks after application
Description: as §1, §2, §3

[10] = system: Polygonum convolvulus; experiment: Herbicidal action (outdoor trials); details: 30 g of AS/ha, scored approx. 4-6 weeks after application
Description: as §1, §2, §3

COc1nc(C)nc(NC(=O)NS(=O)(=O)c2ccccc2OCCCl)n1 [D), 1-[2-(2-chloroethoxy)phenylsulfonyl]-3-(4-methoxy-6-methyl-1,3,5-triazin-2-yl)urea]
Winter wheat % damage ([1]; 15 g of AS/ha, outdoor, scored approx. 4-6 weeks after application, trial with Papaver rhoeas): 0%
Papaver rhoeas % activity ([2]; 15 g of AS/ha): 65%

N#Cc1cc(Br)c(O)c(Br)c1 [E), 3,5-dibromo-4-hydroxy-benzonitrile]
Winter wheat % damage ([1]; 240 g of AS/ha, outdoor, scored approx. 4-6 weeks after application, trial with Papaver rhoeas): 0%
Papaver rhoeas % activity ([2]; 240 g of AS/ha): 85%

Cc1cc(Cl)ccc1OCC(=O)O [C), (4-chloro-2-methylphenoxy)acetic acid]
Wheat wheat % damage [3]: 0%
Avena ludoviciana % activity [4]: 0%

Nc1c(Cl)c(F)nc(OCC(=O)O)c1Cl [I), 4-amino-3,5-dichloro-6-fluoro-2-pyridyloxy acetic acid]
Winter wheat % damage ([1]; in vivo): 1%
Veronic pericaria % activity [5]: 50%

CCOC(=O)[C@@H](C)Oc1ccc(Oc2nc3ccc(Cl)cc3o2)cc1 [J), fenoxaprop-P-ethyl]
Summer wheat % damage [6]: 0%
Brassica naupus % activity [7]: 0%
Aspera spica venti % activity [8]: 25%
Physalis spp. % activity [9]: 0%
Polygonum convolvulus % activity [10]: 0%
